Results from the NIST ThermoML archive (doi:10.1016/j.jct.2012.12.025).
Numbers after ± are expanded uncertainties.

Test: not given
Conditions: 298.15 K; 101.33 kPa; Liquid; Pycnometric method

mass density [kg/m3]	SMILES
970 ± 100	CCOC(=O)OCC [diethyl carbonate]
1070 ± 100	COC(=O)OC [dimethyl carbonate]
1350 ± 100	O=C1OCCO1 [ethylene carbonate]

SMILES	mass density [kg/m3]
CCOC(=O)OC [ethyl methyl carbonate]	1010 ± 100

Test: cn = amount concentration of the nth substance listed, in mol/dm3
Conditions: 298.15 K; 101 kPa; Liquid; Pycnometric method; c1 = 1

SMILES	mass density [kg/m3]
O=S(=O)([N-]S(=O)(=O)C(F)(F)F)C(F)(F)F.[Li+] [lithium bis((trifluoromethyl)sulfonyl)amide] + CCOC(=O)OCC	1100 ± 100
O=S(=O)([N-]S(=O)(=O)C(F)(F)F)C(F)(F)F.[Li+] [lithium bis((trifluoromethyl)sulfonyl)amide] + COC(=O)OC	1160 ± 100
O=S(=O)([N-]S(=O)(=O)C(F)(F)F)C(F)(F)F.[Li+] [lithium bis((trifluoromethyl)sulfonyl)amide] + O=C1OCCO1	1420 ± 100
F[P-](F)(F)(F)(F)F.[Li+] [lithium hexafluorophosphate] + CCOC(=O)OC	1090 ± 100
F[P-](F)(F)(F)(F)F.[Li+] [lithium hexafluorophosphate] + CCOC(=O)OCC	1050 ± 100
F[P-](F)(F)(F)(F)F.[Li+] [lithium hexafluorophosphate] + COC(=O)OC	1140 ± 100
F[P-](F)(F)(F)(F)F.[Li+] [lithium hexafluorophosphate] + O=C1OCCO1	1400 ± 100

Same assay, conditions: 298.15 K; 101 kPa; Liquid; Pycnometric method; c2 = 1

SMILES	mass density [kg/m3]
CCOC(=O)OC [ethyl methyl carbonate] + O=S(=O)([N-]S(=O)(=O)C(F)(F)F)C(F)(F)F.[Li+]	1130 ± 100

Test: wn = mass fraction of the nth substance listed
Conditions: 298.15 K; 101 kPa; Liquid; Pycnometric method; w1 = 0.5

mass density [kg/m3]	SMILES
1090 ± 100	O=C1OCCO1 [ethylene carbonate] + CCOC(=O)OCC
1230 ± 100	O=C1OCCO1 [ethylene carbonate] + COC(=O)OC

Same assay, conditions: 298.15 K; 101 kPa; Liquid; Pycnometric method; w2 = 0.5

SMILES	mass density [kg/m3]
CCOC(=O)OC [ethyl methyl carbonate] + O=C1OCCO1	1190 ± 100
